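Interpolation was linear, between the two tested concentrations surrounding the appropriate level; five concentrations were tested over 48 hours in 96-well plates. Abbreviation: GI50, concentration required for 50% inhibition of growth.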 Activity calls are given as the source filed them. Cut-off read from the data, not from the text of the source: active = GI50 up to about 1.1 µM and inactive = higher.
What was measured:
Test in all cases: NCI anticancer screen, dose series, 48 h
NCI/ADR-RES = system: NCI/ADR-RES
NCI-H522 = system: NCI-H522
OVCAR-4 = system: OVCAR-4
SK-MEL-2 = system: SK-MEL-2
OVCAR-3 = system: OVCAR-3
IGROV-1 = system: IGROV-1
786-0 = system: 786-0
KM12 = system: KM12
NCI-H226 = system: NCI-H226
SF-295 = system: SF-295
SK-MEL-28 = system: SK-MEL-28
CAKI-1 = system: CAKI-1
DU-145 = system: DU-145
HCT-116 = system: HCT-116
MDA-MB-435 = system: MDA-MB-435
MCF7 = system: MCF7
SNB-19 = system: SNB-19
HOP-92 = system: HOP-92
SK-OV-3 = system: SK-OV-3

Measured: GI50

O=c1[nH]nc(Cc2ccccc2)n1Nc1ccccc1
inactive: NCI/ADR-RES > 100 µM | NCI-H522 > 100 µM | OVCAR-4 > 100 µM | SK-MEL-2 48.4 µM | OVCAR-3 > 100 µM | IGROV-1 > 100 µM | 786-0 > 100 µM | KM12 > 100 µM | NCI-H226 > 100 µM | SF-295 > 100 µM | SK-MEL-28 > 100 µM | CAKI-1 46.3 µM | DU-145 > 100 µM | HCT-116 > 100 µM | MDA-MB-435 > 100 µM | MCF7 > 100 µM

COc1ccc2ccnc(Cc3ccc(OCc4ccccc4)c(OC)c3)c2c1
inactive: NCI-H522 22.8 µM | OVCAR-4 14.2 µM | SK-MEL-2 20.7 µM | OVCAR-3 17.1 µM | 786-0 19.2 µM | KM12 18 µM | SF-295 26.4 µM | SK-MEL-28 16.7 µM | CAKI-1 29.2 µM | HCT-116 16.1 µM | SNB-19 85.9 µM

C/C(CC(=O)Nc1cc(Cl)c(Cl)cc1Cl)=N\NS(=O)(=O)c1ccc(C)cc1
inactive: HOP-92 23.1 µM | NCI-H522 17.6 µM | SK-MEL-2 28.9 µM | OVCAR-3 25.5 µM | IGROV-1 37.4 µM | SK-OV-3 53.7 µM | 786-0 41.9 µM | KM12 40.3 µM | NCI-H226 17.9 µM | SF-295 37.1 µM | SK-MEL-28 34.2 µM | HCT-116 23 µM

CON(C)C(=O)CCCO
inactive: HOP-92 > 100 µM | NCI-H522 > 100 µM | OVCAR-4 > 100 µM | SK-MEL-2 > 100 µM | OVCAR-3 > 100 µM | IGROV-1 > 100 µM | SK-OV-3 > 10 µM | 786-0 > 100 µM | KM12 > 100 µM | NCI-H226 > 100 µM | SF-295 > 100 µM | SK-MEL-28 > 100 µM | CAKI-1 > 100 µM | HCT-116 > 100 µM | SNB-19 > 100 µM

Cc1ccc(-n2cnc(C(=N)C#N)c2N)cc1
inactive: NCI/ADR-RES > 100 µM | NCI-H522 > 100 µM | OVCAR-4 > 100 µM | SK-MEL-2 > 100 µM | OVCAR-3 > 100 µM | IGROV-1 > 100 µM | SK-OV-3 > 100 µM | 786-0 > 100 µM | KM12 > 100 µM | NCI-H226 > 100 µM | SF-295 > 100 µM | SK-MEL-28 > 100 µM | CAKI-1 > 100 µM | DU-145 > 100 µM | HCT-116 > 100 µM | MDA-MB-435 > 100 µM | MCF7 > 100 µM | SNB-19 > 100 µM

O=[N+]([O-])c1cccc(C(O)/C(=N/O)c2nc3ccc(Cl)cc3nc2O)c1 (stereo not given)
inactive: HOP-92 > 100 µM | NCI-H522 > 100 µM | OVCAR-4 > 100 µM | OVCAR-3 > 100 µM | IGROV-1 > 100 µM | SK-OV-3 > 100 µM | 786-0 > 100 µM | KM12 > 100 µM | NCI-H226 > 100 µM | SF-295 > 100 µM | SK-MEL-28 > 100 µM | HCT-116 > 100 µM | SNB-19 > 100 µM

COc1ccc2oc(=N)c(C(N)=O)cc2c1
inactive: HOP-92 > 100 µM | NCI/ADR-RES 53.3 µM | OVCAR-4 48.1 µM | SK-MEL-2 23.6 µM | OVCAR-3 37.4 µM | IGROV-1 30.5 µM | SK-OV-3 > 100 µM | 786-0 53.5 µM | KM12 31.5 µM | NCI-H226 46.1 µM | SK-MEL-28 79.4 µM | CAKI-1 50.6 µM | DU-145 71.9 µM | HCT-116 50.9 µM | MDA-MB-435 49.4 µM | SNB-19 38.4 µM

C(=C\c1ccccc1)/C=N/c1ccc2c(c1)Cc1ccccc1-2
inactive: HOP-92 > 100 µM | NCI/ADR-RES 51.3 µM | NCI-H522 36.8 µM | OVCAR-4 63.8 µM | SK-MEL-2 57.1 µM | OVCAR-3 46 µM | IGROV-1 61.5 µM | 786-0 54.2 µM | KM12 > 100 µM | NCI-H226 > 100 µM | SF-295 > 100 µM | SK-MEL-28 97.3 µM | CAKI-1 > 100 µM | DU-145 31.3 µM | HCT-116 35.9 µM | MDA-MB-435 58.1 µM | SNB-19 61.4 µM

O=c1n(-c2ccccc2)c(=O)n2c(-c3ccccc3)c(-c3ccccc3)n12
inactive: HOP-92 > 100 µM | NCI/ADR-RES > 100 µM | OVCAR-4 > 100 µM | SK-MEL-2 > 100 µM | OVCAR-3 > 100 µM | IGROV-1 > 100 µM | SK-OV-3 > 100 µM | 786-0 80.2 µM | KM12 > 100 µM | NCI-H226 > 100 µM | SF-295 84.1 µM | SK-MEL-28 > 100 µM | CAKI-1 > 100 µM | HCT-116 37.4 µM | MCF7 > 100 µM | SNB-19 > 100 µM

O=c1[nH]nc(Nc2ccccc2)c2nnn(C3CCCCC3)c12
inactive: HOP-92 > 100 µM | NCI/ADR-RES > 100 µM | OVCAR-4 > 100 µM | SK-MEL-2 > 100 µM | OVCAR-3 > 100 µM | 786-0 > 100 µM | KM12 > 100 µM | SF-295 > 100 µM | SK-MEL-28 > 100 µM | CAKI-1 > 100 µM | DU-145 > 100 µM | HCT-116 > 100 µM | MDA-MB-435 > 100 µM | MCF7 > 100 µM | SNB-19 > 100 µM

O=C(O)CCC/N=C(\C(=N\CCCC(=O)O)c1ccccc1)c1ccccc1
inactive: NCI/ADR-RES > 100 µM | OVCAR-4 > 100 µM | SK-MEL-2 > 100 µM | OVCAR-3 > 100 µM | IGROV-1 > 100 µM | SK-OV-3 > 100 µM | 786-0 > 100 µM | KM12 > 100 µM | NCI-H226 > 100 µM | SF-295 > 100 µM | SK-MEL-28 > 100 µM | DU-145 > 100 µM | HCT-116 > 100 µM | MDA-MB-435 > 100 µM | MCF7 > 100 µM | SNB-19 > 100 µM

S=C1CC(c2ccccc2)Sc2ccccc2N1 (stereo not given)
inactive: NCI/ADR-RES 68.9 µM | NCI-H522 31.3 µM | OVCAR-4 49.2 µM | OVCAR-3 45.5 µM | IGROV-1 > 100 µM | SK-OV-3 41.6 µM | 786-0 > 10 µM | KM12 95.3 µM | NCI-H226 > 100 µM | SF-295 > 100 µM | SK-MEL-28 51.4 µM | CAKI-1 55 µM | DU-145 87.1 µM | HCT-116 37 µM | MDA-MB-435 61.1 µM | MCF7 44.4 µM | SNB-19 35.6 µM

COc1ccc(Cc2c(N)[nH]c(=O)n(C)c2=O)cc1
inactive: HOP-92 3.9 µM | NCI/ADR-RES > 100 µM | NCI-H522 > 100 µM | OVCAR-4 89.7 µM | SK-MEL-2 > 100 µM | OVCAR-3 > 100 µM | IGROV-1 > 100 µM | SK-OV-3 > 100 µM | 786-0 > 100 µM | KM12 > 100 µM | NCI-H226 > 100 µM | SF-295 > 100 µM | SK-MEL-28 > 100 µM | CAKI-1 96.6 µM | HCT-116 > 100 µM | MDA-MB-435 > 100 µM | MCF7 5.75 µM | SNB-19 > 100 µM

CCN(CC)Cc1cc(Nc2ccnc3ccc4nn(C)nc4c23)ccc1O
inactive: NCI-H522 9.29 µM | OVCAR-4 10.4 µM | OVCAR-3 12.3 µM | IGROV-1 25.2 µM | SK-OV-3 18.5 µM | 786-0 11.8 µM | KM12 10.5 µM | NCI-H226 22.5 µM | SF-295 13.6 µM | SK-MEL-28 14 µM | CAKI-1 28.8 µM | HCT-116 4.79 µM | SNB-19 28 µM

O=C(NCCN1C(=O)CN=C(c2ccc(Cl)cc2)c2cc(Cl)ccc21)OCc1ccccc1
inactive: HOP-92 14.7 µM | NCI/ADR-RES 11.9 µM | NCI-H522 15.5 µM | OVCAR-4 8.71 µM | SK-MEL-2 18.1 µM | OVCAR-3 12.6 µM | IGROV-1 15.3 µM | SK-OV-3 52.2 µM | 786-0 14.7 µM | KM12 15.3 µM | NCI-H226 15.6 µM | SF-295 13.7 µM | SK-MEL-28 33.7 µM | CAKI-1 14.2 µM | DU-145 18.2 µM | HCT-116 11.9 µM | MDA-MB-435 15.1 µM | SNB-19 18.9 µM

COC(=O)C1(Cc2ccc3c(c2)CCC3)Cc2ccccc2C1O (stereo not given)
inactive: NCI/ADR-RES 18.7 µM | NCI-H522 15.9 µM | OVCAR-4 13.9 µM | SK-MEL-2 12.8 µM | OVCAR-3 20.5 µM | IGROV-1 21.6 µM | SK-OV-3 19.7 µM | 786-0 16.3 µM | KM12 22.6 µM | NCI-H226 17.3 µM | SF-295 17.5 µM | SK-MEL-28 16.9 µM | CAKI-1 23.8 µM | DU-145 39.4 µM | HCT-116 17.4 µM | MDA-MB-435 18.7 µM | MCF7 24.3 µM | SNB-19 19.3 µM

CN(C)CCOc1ccc2[nH]c(C(=O)N3CC(CCl)c4c3cc([N+](=O)[O-])c3ccccc43)cc2c1 (stereo not given)
inactive: NCI/ADR-RES 1.65 µM | SK-MEL-2 2.15 µM | OVCAR-3 1.87 µM | IGROV-1 2.14 µM | SK-OV-3 27.3 µM | 786-0 2.1 µM | KM12 1.71 µM | NCI-H226 54.1 µM | SF-295 2.51 µM | SK-MEL-28 1.72 µM | CAKI-1 2.79 µM | DU-145 2.55 µM | HCT-116 1.67 µM | MDA-MB-435 2 µM | MCF7 1.76 µM | SNB-19 2.36 µM

— ChEMBL document CHEMBL1201862, “PubChem BioAssay data set” (2004)
